Columns and labels:
DLK = target: T1, DLK (Homo sapiens, UniProt Q12852); assay: DLK biochemical assay (TR-FRET, MKK7 phosphorylation)
T1 construct: 10 nM DLK, catalytic domain, Carna Biosiences; purchased Carna Biosciences ('Carna Biosiences' [sic])
T1 sequence (Q12852 125-366 limits assumed): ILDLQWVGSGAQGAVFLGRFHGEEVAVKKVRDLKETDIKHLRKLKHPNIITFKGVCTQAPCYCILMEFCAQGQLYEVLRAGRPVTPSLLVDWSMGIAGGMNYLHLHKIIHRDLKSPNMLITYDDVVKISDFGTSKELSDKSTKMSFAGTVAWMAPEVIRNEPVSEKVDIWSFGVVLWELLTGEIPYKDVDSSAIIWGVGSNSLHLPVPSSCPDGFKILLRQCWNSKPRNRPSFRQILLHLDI
How it was run: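 TR-FRET read-out (665/Eu ratio) of MKK7 T275/S277 phosphorylation, with inhibition lowering the signal. Final conditions: 10 nM DLK catalytic domain, 15 nM MKK7, 60 μM ATP, 90 min at RT. Detection incubation 16 h at 37° C in 1536-well or 4° C in 384-well format.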

LZK = target: T2, LZK (Homo sapiens, UniProt O43283); assay: LZK biochemical assay (TR-FRET, MKK7 phosphorylation)
T2 construct: 10 nM LZK, catalytic domain, Carna Biosiences in assay buffer; purchased Carna Biosciences ('Carna Biosiences' [sic])
T2 sequence (O43283 168-409 limits assumed): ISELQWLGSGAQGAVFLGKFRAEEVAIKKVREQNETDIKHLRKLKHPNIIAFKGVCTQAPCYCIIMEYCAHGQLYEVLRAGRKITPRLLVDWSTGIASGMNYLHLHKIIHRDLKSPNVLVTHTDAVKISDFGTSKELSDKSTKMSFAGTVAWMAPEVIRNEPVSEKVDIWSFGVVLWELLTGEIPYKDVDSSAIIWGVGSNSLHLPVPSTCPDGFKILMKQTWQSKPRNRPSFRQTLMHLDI
How it was run: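 Read-out is HTRF: Eu-labelled anti-phospho-MKK7 (T275/S277) and XL665 anti-His, incubated 16 h at 32 °C, with a drop in signal marking inhibition. Reaction beforehand: 10 nM LZK kinase domain, 15 nM His-MKK7, 15 µM ATP (final) for 90 min at room temperature, pH 7.5.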

| Structure (SMILES) | IC50 (DLK) | IC50 (LZK) |
| --- | --- | --- |
| Nc1nc2c(-c3ccc(=O)n(CC(F)(F)F)c3)cc(-c3cnn(C(c4ccc(C(F)(F)F)nc4)C4CCOCC4)c3)cn2n1 (single isomer, unassigned) [II-161, 5-[2-Amino-6-(1-{tetrahydro-2H-pyran-4-yl[6-(trifluoromethyl)pyridin-3-yl]methyl}-1H-pyrazol-4-yl)[1,2,4]triazolo[1,5-a]pyridin-8-yl]-1-(2,2,2-trifluoroethyl)pyridin-2(1H)-one] | 8.5 nM | 12 nM |
| CCC(c1ccc(C(F)F)nc1)n1cc(-c2cc(-c3ccc(C(F)(F)F)nc3)n3nc(N)nc3c2)cn1 (single isomer, unassigned) [II-63, 7-(1-{1-[6-(Difluoromethyl)pyridin-3-yl]propyl}-1H-pyrazol-4-yl)-5-[6-(trifluoromethyl)pyridin-3-yl][1,2,4]triazolo[1,5-a]pyridin-2-amine] | 97 nM | 51 nM |
| CC(C)C(c1ccc(C(F)(F)F)nc1)n1cc(-c2cc(-c3ccc(C(F)F)nc3)n3nc(N)nc3c2)cn1 (single isomer, unassigned) [II-71, 5-[6-(Difluoromethyl)pyridin-3-yl]-7-(1-{2-methyl-1-[6-(trifluoromethyl)pyridin-3-yl]propyl}-1H-pyrazol-4-yl)[1,2,4]triazolo[1,5-a]pyridin-2-amine] | 160 nM | 74 nM |
| Nc1nc2cc(-c3cnn(C(c4ccc(C(F)(F)F)nc4)C4CCOCC4)c3)cc(-c3cn(CC(F)(F)F)c(=O)cn3)n2n1 (single isomer, unassigned) [II-196, 5-[2-Amino-7-(1-{tetrahydro-2H-pyran-4-yl[6-(trifluoromethyl)pyridin-3-yl]methyl}-1H-pyrazol-4-yl)[1,2,4]triazolo[1,5-a]pyridin-5-yl]-1-(2,2,2-trifluoroethyl)pyrazin-2(1H)-one] | 16 nM | 50 nM |
| CC(C)C(c1ccc(C(F)F)nc1)n1cc(-c2cc(-c3ccc(C(F)(F)F)nc3)n3nc(N)nc3c2)cn1 (racemic) [II-64, 7-(1-{1-[6-(Difluoromethyl)pyridin-3-yl]-2-methylpropyl}-1H-pyrazol-4-yl)-5-[6-(trifluoromethyl)pyridin-3-yl][1,2,4]triazolo[1,5-a]pyridin-2-amine] | 40 nM | 59 nM |
| CCC(c1ccc(C(F)(F)F)nc1)n1cc(-c2cc(-c3ccn(C)c(=O)c3)c3nc(N)nn3c2)cn1 (single isomer, unassigned) [II-170, 4-[2-Amino-6-(1-{1-[6-(trifluoromethyl)pyridin-3-yl]propyl}-1H-pyrazol-4-yl)[1,2,4]triazolo[1,5-a]pyridin-8-yl]-1-methylpyridin-2(1H)-one] | 73 nM | 220 nM |
| CC(C)C(c1ccc(C(F)F)nc1)n1cc(-c2cc(-c3ccc(C(F)(F)F)nc3)n3nc(N)nc3c2)cn1 (single isomer, unassigned) [II-66, 7-(1-{1-[6-(Difluoromethyl)pyridin-3-yl]-2-methylpropyl}-1H-pyrazol-4-yl)-5-[6-(trifluoromethyl)pyridin-3-yl][1,2,4]triazolo[1,5-a]pyridin-2-amine] | 45 nM | 43 nM |
| CCC(c1ccc(C(F)F)nc1)n1cc(-c2cc(-c3ccc(C(F)(F)F)nc3)n3nc(N)nc3c2)cn1 (racemic) [II-61, 7-(1-{1-[6-(Difluoromethyl)pyridin-3-yl]propyl}-1H-pyrazol-4-yl)-5-[6-(trifluoromethyl)pyridin-3-yl][1,2,4]triazolo[1,5-a]pyridin-2-amine] | 65 nM | 62 nM |
| CC(C)C(c1ccc(C(F)(F)F)nc1)n1cc(-c2cc(-c3ccnc(C(F)(F)F)c3)n3nc(N)nc3c2)cn1 (racemic) [II-28, 7-(1-{2-Methyl-1-[6-(trifluoromethyl)pyridin-3-yl]propyl}-1H-pyrazol-4-yl)-5-[2-(trifluoromethyl)pyridin-4-yl][1,2,4]triazolo[1,5-a]pyridin-2-amine] | 28 nM | 27 nM |
| CC(C)C(c1ccc(C(F)F)nc1)n1cc(-c2cc(-c3ccc(OC(F)F)nc3)n3nc(N)nc3c2)cn1 (single isomer, unassigned) [II-51, 5-[6-(Difluoromethoxy)pyridin-3-yl]-7-(1-{1-[6-(difluoromethyl)pyridin-3-yl]-2-methylpropyl}-1H-pyrazol-4-yl)[1,2,4]triazolo[1,5-a]pyridin-2-amine] | 13 nM | 25 nM |
| Nc1nc2cc(-c3cnn(C(c4ccc(C(F)(F)F)nc4)C4CCOCC4)c3)cc(-c3ccnc(C(F)(F)F)c3)n2n1 (racemic) [II-34, 7-(1-{Tetrahydro-2H-pyran-4-yl[6-(trifluoromethyl)pyridin-3-yl]methyl}-1H-pyrazol-4-yl)-5-[2-(trifluoromethyl)pyridin-4-yl][1,2,4]triazolo[1,5-a]pyridin-2-amine] | 15 nM | 7.1 nM |
| CC(C)C(c1ccc(C(F)(F)F)nc1)n1cc(-c2cc(-c3ccnc(C(F)(F)F)c3)n3nc(N)nc3c2)cn1 (single isomer, unassigned) [II-30, 7-(1-{2-Methyl-1-[6-(trifluoromethyl)pyridin-3-yl]propyl}-1H-pyrazol-4-yl)-5-[2-(trifluoromethyl)pyridin-4-yl][1,2,4]triazolo[1,5-a]pyridin-2-amine] | 8.7 nM | 6.7 nM |

These reach a lower IC50 (DLK). Values come first.

| IC50 (DLK) | IC50 (LZK) | Structure (SMILES) |
| --- | --- | --- |
| 4.9 nM | 25 nM | CCC(c1ccc(OC(F)(F)F)nc1)n1cc(-c2cc(-c3ccc(=O)n(CC(F)(F)F)c3)c3nc(N)nn3c2)cn1 (centres unmarked) [II-163] |
| 1.4 nM | 3 nM | CC(C)(O)c1cccc(-c2cc(-c3cnn(C(c4ccc(C(F)(F)F)nc4)C4CCOCC4)c3)cn3nc(N)nc23)c1 (single isomer, unassigned) [II-11, 2-{3-[2-Amino-6-(1-{tetrahydro-2H-pyran-4-yl[6-(trifluoromethyl)pyridin-3-yl]methyl}-1H-pyrazol-4-yl)[1,2,4]triazolo[1,5-a]pyridin-8-yl]phenyl}propan-2-ol] |
| 3.5 nM | 17 nM | CCC(c1ccc(OC(F)(F)F)nc1)n1cc(-c2cc(-c3ccc(=O)n(CC(F)(F)F)c3)c3nc(N)nn3c2)cn1 (single isomer, unassigned) [II-164, 5-[2-Amino-6-(1-{1-[6-(trifluoromethoxy)pyridin-3-yl]propyl}-1H-pyrazol-4-yl)[1,2,4]triazolo[1,5-a]pyridin-8-yl]-1-(2,2,2-trifluoroethyl)pyridin-2(1H)-one] |
| 0.7 nM | 0.9 nM | CC(C)(O)c1cccc(-c2cc(-c3cnn(C(c4ccc(C(F)(F)F)nc4)C4CCOCC4)c3)cn3nc(N)nc23)c1 (racemic) [II-10, 2-{3-[2-Amino-6-(1-{tetrahydro-2H-pyran-4-yl[6-(trifluoromethyl)pyridin-3-yl]methyl}-1H-pyrazol-4-yl)[1,2,4]triazolo[1,5-a]pyridin-8-yl]phenyl}propan-2-ol] |
| 0.5 nM | 2.3 nM | CN(C)c1cccc(-c2cc(-c3cnn(C(c4ccc(C(F)(F)F)nc4)C4CCOCC4)c3)cn3nc(N)nc23)c1 (single isomer, unassigned) [II-24, 8-[3-(Dimethylamino)phenyl]-6-(1-{tetrahydro-2H-pyran-4-yl[6-(trifluoromethyl)pyridin-3-yl]methyl}-1H-pyrazol-4-yl)[1,2,4]triazolo[1,5-a]pyridin-2-amine] |
| 1.7 nM | 29 nM | COc1cc([C@H](C(C)C)n2cc(-c3cc(-c4cnn(CC(F)(F)F)c4)n4nc(N)nc4c3)cn2)ccn1 [II-138] |
| 3.3 nM | 9.9 nM | CC(C)[C@@H](c1ccc(C(F)(F)F)nc1)n1cc(-c2cc(-c3cnn(C4CCCC4)c3)n3nc(N)nc3c2)cn1 [II-145] |
| 1 nM | 3.1 nM | Nc1nc2c(-c3ccc(=O)n(C(F)F)c3)cc(-c3cnn(C(c4ccc(C(F)(F)F)nc4)C4CCOCC4)c3)cn2n1 (single isomer, unassigned) [II-155, 5-[2-Amino-6-(1-{tetrahydro-2H-pyran-4-yl[6-(trifluoromethyl)pyridin-3-yl]methyl}-1H-pyrazol-4-yl)[1,2,4]triazolo[1,5-a]pyridin-8-yl]-1-(difluoromethyl)pyridin-2(1H)-one] |
| 4 nM | 2.4 nM | CC(C)C(c1ccc(C(F)(F)F)nc1)n1cc(-c2cc(-c3ccc(C4(O)CCC4)nc3)n3nc(N)nc3c2)cn1 (single isomer, unassigned) [II-81, 1-{5-[2-Amino-7-(1-{2-methyl-1-[6-(trifluoromethyl)pyridin-3-yl]propyl}-1H-pyrazol-4-yl)[1,2,4]triazolo[1,5-a]pyridin-5-yl]pyridin-2-yl}cyclobutan-1-ol] |
| 0.8 nM | 2 nM | Nc1nc2c(-c3ccc(=O)n(CC(F)(F)F)c3)cc(-c3cnn([C@H](c4ccc(C(F)(F)F)nc4)C4CCOCC4)c3)cn2n1 [II-162] |
